Usually inhibition stands for how much of the control response was suppressed. In general, pIC50 refers to the IC50 on a negative log10 scale, so that one unit is a factor of ten. High values mean a small IC50, low ones a large IC50.

In experiment [1] the test system is HL-60. Description: Increase in CD11b expression in human HL60 cells. It counts as functional.
Experiment [2] relates to HL-60. Description: Growth inhibition of human HL60 cells at 1 uM after 3 days. To be noted: HL-60, 72 h. It counts as functional.
In experiment [3] the test system is HL-60. Description: Growth inhibition of human HL60 cells at 10 uM after 3 days. As to conditions: HL-60, 72 h. It counts as functional.
For experiment [4], the system named is HL-60. As to the kind of experiment: Increase in CD11b/CD14 double expression in human HL60 cells. The class given is functional.
For experiment [5], the system named is HL-60. Description: Growth inhibition of human HL60 cells after 3 days. It counts as functional, cell-based. To be noted: HL-60, 72 h.

pIC50: −log10 of the molar value.

On to `C[C@]12C[C@H](NCCC(c3ccccc3)c3ccccc3)[C@@H](O)C[C@@H]1CC[C@@H]1[C@@H]2CC[C@]2(C)[C@@H](O)CC[C@@H]12`, for which the Activity in experiment [1] turned out to be 58%; in experiment [4], 39%. Also, 1 µM produced 12.9% inhibition in experiment [2]. The same molecule yielded an inhibition at 10 µM in experiment [3] of 95.2%. In addition, in experiment [5], the pIC50 was 5.51.
Consider `CCCCCCCCCN1CCN([C@H]2C[C@@]3(C)[C@@H](CC[C@@H]4[C@@H]3CC[C@]3(C)[C@@H](O)CC[C@@H]43)C[C@@H]2O)CC1`, for which the results for the Activity in experiment [1] and in experiment [4] were 55% and 32%, respectively. 1 µM produced 9.1% inhibition in experiment [2]. This molecule showed an inhibition at 10 µM in experiment [3] of 99.8%. This molecule showed a pIC50 in experiment [5] of 5.38.
On to `CCCCCCCCN[C@H]1C[C@@]2(C)[C@@H](CC[C@@H]3[C@@H]2CC[C@]2(C)[C@@H](O)CC[C@@H]32)C[C@@H]1O`, for which the results for the Activity in experiment [1] and in experiment [4] were 29% and 10%, respectively. In experiment [2], this molecule yielded an inhibition at 1 µM of 0%. For the same molecule, testing at 10 µM in experiment [3] gave an inhibition of 99.2%. Besides, in experiment [5], the pIC50 is 5.19.
`CCCCCCCCCCCN(CCCCCCCCCCC)[C@H]1C[C@@]2(C)[C@@H](CC[C@@H]3[C@@H]2CC[C@]2(C)[C@@H](O)CC[C@@H]32)C[C@@H]1O` displayed an inhibition at 1 µM in experiment [2] of 11.7%. In addition, the inhibition at 10 µM in experiment [3] was 7%.
The matching figures for `CCCC(=O)N1CCN([C@H]2C[C@@]3(C)[C@@H](CC[C@@H]4[C@@H]3CC[C@]3(C)[C@@H](O)CC[C@@H]43)C[C@@H]2O)CC1`: 0% and 4.6%.
Turning to `CCN(CC)[C@H]1C[C@@]2(C)[C@@H](CC[C@@H]3[C@@H]2CC[C@]2(C)[C@@H](O)CC[C@@H]32)C[C@@H]1O`, at 1 µM the inhibition in experiment [2] was 0%. Moreover, 10 µM produced 6.7% inhibition in experiment [3].
The corresponding values for `CCCN1CCN([C@H]2C[C@@]3(C)[C@@H](CC[C@@H]4[C@@H]3CC[C@]3(C)[C@@H](O)CC[C@@H]43)C[C@@H]2O)CC1` are 0% and 0%.
With `COc1cccc2c1C(=O)c1c(O)c3c(c(O)c1C2=O)C[C@@](O)(C(=O)CO)C[C@@H]3O[C@H]1C[C@H](N)[C@H](O)[C@H](C)O1` [DOXORUBICIN], at 1 µM the inhibition in experiment [2] was 91.8%. The inhibition at 10 µM in experiment [3] stood at 94.6%. In experiment [5], the pIC50 was 7.00.
